Molecular target: T1, jack bean urease (Canavalia ensiformis, UniProt P07374)
T1 construct: native jack bean urease
Experiment: phenol red pH-rise urease assay, […] nm, time from pH […] to […]
Format: biochemical

T1 sequence (P07374 whole entry): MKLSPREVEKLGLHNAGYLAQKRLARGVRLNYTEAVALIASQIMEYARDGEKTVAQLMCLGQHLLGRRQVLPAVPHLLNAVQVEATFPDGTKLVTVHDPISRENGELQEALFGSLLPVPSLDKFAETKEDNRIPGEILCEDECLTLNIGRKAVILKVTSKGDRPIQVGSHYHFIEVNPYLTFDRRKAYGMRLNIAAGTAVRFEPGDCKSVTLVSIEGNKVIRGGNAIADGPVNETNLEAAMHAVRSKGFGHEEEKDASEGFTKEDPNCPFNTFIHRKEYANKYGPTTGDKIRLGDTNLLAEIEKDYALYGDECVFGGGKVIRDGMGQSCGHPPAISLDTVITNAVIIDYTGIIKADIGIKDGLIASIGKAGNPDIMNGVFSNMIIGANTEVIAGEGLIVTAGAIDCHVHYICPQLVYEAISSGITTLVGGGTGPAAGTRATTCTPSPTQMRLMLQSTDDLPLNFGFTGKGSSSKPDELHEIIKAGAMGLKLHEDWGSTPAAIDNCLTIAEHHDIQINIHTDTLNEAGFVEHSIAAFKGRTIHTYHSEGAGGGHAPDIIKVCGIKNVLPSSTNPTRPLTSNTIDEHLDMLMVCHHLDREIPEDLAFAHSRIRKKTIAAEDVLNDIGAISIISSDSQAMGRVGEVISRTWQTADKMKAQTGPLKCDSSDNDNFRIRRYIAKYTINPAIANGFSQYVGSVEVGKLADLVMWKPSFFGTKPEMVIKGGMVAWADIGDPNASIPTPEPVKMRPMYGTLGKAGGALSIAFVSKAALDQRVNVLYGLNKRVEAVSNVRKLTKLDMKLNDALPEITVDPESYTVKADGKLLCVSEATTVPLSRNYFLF

| Structure (SMILES) | IC50 |
| --- | --- |
| CC(=O)NO [Acetohydroxamic acid, reference compound] | 185 ± 6.2 µM |
| O=C(NN=Cc1ccccc1)c1ccncc1 [L6, N-(benzylidene)pyridine-4-carbohydrazide] | > 500 µM |
| O=C(NN=Cc1ccccc1C(F)(F)F)c1ccncc1 [L2, N-[[(2-trifluoromethyl)phenyl]methylidene]pyridine-4-carbohydrazide] | > 500 µM |
| O=C(NN=Cc1cc(F)ccc1O)c1ccncc1 [L4, N-[(5-fluoro-2-hydroxyphenyl)methylidene]pyridine-4-carbohydrazide] | > 500 µM |
| O=C(NN=Cc1ccc(C(F)(F)F)cc1)c1ccncc1 [L1] | > 500 µM |
| O=C(NN=Cc1ccc(F)cc1)c1ccncc1 [L3, N-[(4-fluorophenyl)methylidene]pyridine-4-carbohydrazide monohydrate] | > 500 µM |
| O=C(NN=Cc1cccc(F)c1O)c1ccncc1 [L5, N-[(3-fluoro-2-hydroxyphenyl)methylidene]pyridine-4-carbohydrazide] | > 500 µM |

Source: paper PMC6274214, “Antimicrobial Activity and Urease Inhibition of Schiff Bases Derived from Isoniazid and Fluorinated Benzaldehydes and of Their Copper(II) Complexes” (Molecules, 2016)
